Experiments:
[1] = molecular target: T1, Phosphoethanolamine N-methyltransferase (Plasmodium falciparum, UniProt Q8IDQ9); assay: Inhibition of Plasmodium falciparum phosphoethanolamine methyltransferase using phospethanolamine as substrate by radiochemical assay in presence of S-adenosylmethionine
T1 sequence (Q8IDQ9 whole entry): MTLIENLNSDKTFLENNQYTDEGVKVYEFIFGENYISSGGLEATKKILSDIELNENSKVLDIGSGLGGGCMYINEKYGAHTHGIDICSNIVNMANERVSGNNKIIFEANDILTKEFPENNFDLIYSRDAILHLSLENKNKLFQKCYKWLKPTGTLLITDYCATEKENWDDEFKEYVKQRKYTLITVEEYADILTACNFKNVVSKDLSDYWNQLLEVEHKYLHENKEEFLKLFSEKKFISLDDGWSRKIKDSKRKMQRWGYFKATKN

[2] = Inhibition of Haemonchus contortus phosphoethanolamine methyltransferase1-mediated conversion of phosphoethanolamine to phosphomonomethylethanolamine by radiochemical assay in presence of S-adenosylmethionine
[3] = molecular target: Histamine N-methyltransferase (Homo sapiens, UniProt P50135); assay: Inhibition of histamine N-methyltransferase by radiochemical assay
Sequence of Histamine N-methyltransferase (P50135 whole entry): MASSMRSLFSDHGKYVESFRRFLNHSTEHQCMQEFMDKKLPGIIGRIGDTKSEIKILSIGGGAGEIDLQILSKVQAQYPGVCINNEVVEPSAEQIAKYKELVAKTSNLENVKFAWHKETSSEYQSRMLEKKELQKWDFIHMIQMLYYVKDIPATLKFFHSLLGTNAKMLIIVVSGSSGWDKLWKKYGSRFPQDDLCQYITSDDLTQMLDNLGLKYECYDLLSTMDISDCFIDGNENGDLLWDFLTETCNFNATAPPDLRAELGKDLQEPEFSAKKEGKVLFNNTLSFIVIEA

[4] = Inhibition of Haemonchus contortus phosphoethanolamine methyltransferase2 conversion of phosphomonomethylethanolamine to phosphodimethylethanolamine by radiochemical assay in presence of S-adenosylmethionine

SMILES: CCN(CC)CCCC(C)Nc1ccnc2cc(Cl)ccc12 (stereo not given) [CHLOROQUINE]
- IC50 [1]: 554 µM

SMILES: COc1cc(NC(C)CCCN)c2ncccc2c1 (stereo not given) [PRIMAQUINE]
- IC50 [1]: 460 µM

SMILES: CCN(CC)Cc1cc(Nc2ccnc3cc(Cl)ccc23)ccc1O
- IC50 [2]: 3000 µM
- Ki [3]: 0.019 µM
- IC50 [4]: 3000 µM
